Experimental data as given in patent US20210401827A1 (priority 2018, published 2021).
Where two headings read alike, the source gives them in different places.

Key:
[1] = human, in vivo
[2] = in vivo; cited from earlier work
[3] = human, in vivo; remark: listed apart in the source

Structure (SMILES) | Lambda z [1] [h⁻¹] | AUCextrap ([1]; im, 1.5 mg) [%] | Cmax/D ([1]; im, 1.5 mg) [ng/mL/mg] | adverse events with an incidence less than 1% [2] | common adverse reactions with an incidence greater than 1% [2] | λz [3] [h⁻¹] | AUCextrap ([3]; im, 2 mg) [%] | Cmax/Dose ([3]; im, 2 mg) [ng/mL/mg]
C=C1CC[C@@]2(O)[C@H]3Cc4ccc(O)c5c4[C@@]2(CCN3CC2CC2)[C@H]1O5 [Nalmefene, 17-cyclopropylmethyl-4,5α-epoxy-6-methylenemorphinan-3,14-diol] | 0.094 | 22.6 | 1.12 | bradycardia, arrhythmia, diarrhea, dry mouth, somnolence, depression, agitation, nervousness, tremor, confusion, withdrawal syndrome, myoclonus, pharyngitis, pruritus, and urinary retention | nausea, vomiting, tachycardia, hypertension, postoperative pain, fever, dizziness, headache, chills, hypotension, and vasodilation | – | – | –
O=C1CC[C@@]2(O)[C@H]3Cc4ccc(O)c5c4[C@@]2(CCN3CC2CC2)[C@H]1O5 [Naltrexone, 17-(cyclopropylmethyl)-4,5α-epoxy-3,14-dihydroxymorphinan-6-one] | – | – | – | – | – | 0.361 | 1.01 | 2.27
